This note sets out measurements from patent publication EP2377520A1, “Pharmaceutical compound of prasugrel” (Ratiopharm GmbH, priority 2010, dated 2011).

In brackets after ≈: the same amount, converted by molar mass.

One data set in a line: Solubility in water. Conditions: in Wasser, freie Base, read-out: Löslichkeit. The format is physicochemical. How it is done: Prasugrel wird als Plättchenaggregationshemmer oral verabreicht. Problematisch hierbei ist, dass es sich bei Prasugrel um einen schwer löslichen Wirkstoff handelt. Die freie Base des Wirkstoffs weist eine Löslichkeit von 57 µg/ml in Wasser auf, aber auch die Salze zeigen nur eine begrenzte Löslichkeit.

A short description of another data set: pH-dependent degradation. The data set is classed as physicochemical. The conditions noted are these: pH-Werte < 3; nach bereits 2 Stunden; read-out: Abbau. An excerpt:
Darüber hinaus weist Prasugrel auch einen stark pH-abhängigen Abbau auf. Bei pH-Werten von < 3 ist ein Abbau von mehr als 1 % nach bereits 2 Stunden zu beobachten. Dies schränkt die möglichen Hilfsstoffe bei der Herstellung pharmazeutischer Formulierungen ein.

For the molecule `CC(=O)Oc1cc2c(s1)CCN(C(C(=O)C1CC1)c1ccccc1F)C2` (centres unmarked) [Prasugrel, 2-Acetoxy-5-(a-cyclopropylcarbonyl-2-fluorbenzyl)-4,5,6,7-tetrahydrothieno[3,2-c]pyridin], in the data set “Solubility in water”, the solubility stood at 57 µg/mL (≈ 153 µM). For the same molecule, the degraded at 2 h in the data set “pH-dependent degradation” was more than 1%.
